The results in this text go back to ChEMBL document CHEMBL4325903, “N-Substituted aminoquinoline-pyrimidine hybrids: Synthesis, in vitro antimalarial activity evaluation and docking studies” (Eur J Med Chem, 2019).

For orientation: IC50 means the concentration that gives 50% inhibition.

Data set [1] has as its system Plasmodium falciparum. In words: Antimalarial activity against chloroquine-sensitive Plasmodium falciparum D6 infected in RBC after 72 hrs by LDH release assay. Type of data set: functional, organism-based. To be noted: D6, 72 h. For orientation: LDH in the medium is a marker of cell lysis.
Data set [2] can be described thus: Selectivity index, ratio of IC50 for cytotoxicity against African green monkey Vero cells to IC50 for chloroquine-sensitive Plasmodium falciparum D6. Type of data set: toxicity, cell-based. To be noted: read-out: Ratio IC50.
The test system of data set [3] is Plasmodium falciparum. In words: Antimalarial activity against chloroquine-resistant Plasmodium falciparum W2 infected in RBC after 72 hrs by LDH release assay. Type of data set: functional, organism-based. To be noted: W2, 72 h.
Data set [4] is described as follows: Selectivity index, ratio of IC50 for cytotoxicity against African green monkey Vero cells to IC50 for chloroquine-resistant Plasmodium falciparum W2. Type of data set: toxicity, cell-based. To be noted: read-out: Ratio IC50.
Data set [5] relates to Vero. In words: Cytotoxicity against African green monkey Vero cells after 48 hrs by neutral red assay. Type of data set: cell-based. Particulars: chlorocebus sabaeus.
In data set [6] the test system is Vero. Nature of the data set: Cytotoxicity against African green monkey Vero cells up to 10 uM after 48 hrs by neutral red assay. To be noted: chlorocebus sabaeus. Type of data set: cell-based.
Data set [7] in a line: Binding affinity to hemin assessed as 1:1 stoichiometry for compound-hemin complex up to 12 uM at pH 7.4 by Job's plot analysis.
Data set [8] can be described thus: Binding affinity to hemin assessed as 1:1 stoichiometry for compound-hemin complex up to 12 uM at pH 5.6 by Job's plot analysis.
The subject of a further data set is mu-oxodimeric heme. Nature of the data set: Binding affinity to mu-oxodimeric heme assessed as 1:1 up to 20 uM at pH 5.8 by titration method.
Data set [9] has as its system Plasmodium falciparum. In words: Potency index, ratio of chloroquine IC50 to compound IC50 for antimalarial activity against chloroquine-resistant Plasmodium falciparum W2 infected in RBC. Type of data set: functional.

Activity calls are given as the source filed them. The calls are words filed in the database; no cut-off is given here.

Take `Cc1cc(N2CCCCC2)nc(N(CCCNc2ccnc3cc(Cl)ccc23)Cc2cccs2)n1`: the figures for the IC50 in the data set with Plasmodium falciparum [1], in the data set on Plasmodium falciparum [3] and in the data set with Vero [5] were 44.6 nM, 185 nM and 7200 nM, respectively. Further, the selectivity ratio stood at 161 in data set [2] and 38.9 in [4].

For `Cc1cc(N(CCCNc2ccnc3cc(Cl)ccc23)Cc2cccs2)nc(N2CCOCC2)n1`, the concentration for half-maximal inhibition (IC50) with Plasmodium falciparum [1] is 55.2 nM; in the data set on Plasmodium falciparum [3] it was 409 nM; in the data set on Vero [5] it was 9300 nM. Also, the figures for the selectivity ratio in [2] and in data set [4] were 168 and 22.7, respectively.

With `Cc1cc(N(CCNc2ccnc3cc(Cl)ccc23)Cc2ccccn2)nc(N2CCN(C)CC2)n1`, in the data set on Plasmodium falciparum [3], half-maximal inhibition (IC50) was put at 142 nM. In addition, the Activity result in the data set on Vero [6] is “Non-Toxic”; in data set [7] it was 0.5 molar ratio; in data set [8], 0.5 molar ratio. In the data set on mu-oxodimeric heme, the outcome was Active.

For `Cc1cc(N2CCCC2)nc(N(CCNc2ccnc3cc(Cl)ccc23)Cc2ccccn2)n1`, the figures for the IC50 in the data set with Plasmodium falciparum [1] and in the data set on Plasmodium falciparum [3] were 140 nM and 855 nM, respectively. In addition, the selectivity ratio in [2] was over 71.7; in data set [4], over 11.7. Besides, in the data set on Vero [6], the Activity entry is recorded as “Non-Toxic”.

In the case of `CCN1CCN(c2cc(C)nc(N(CCCNc3ccnc4cc(Cl)ccc34)Cc3cccs3)n2)CC1`, the figures for the IC50 in the data set on Plasmodium falciparum [1] and with Plasmodium falciparum [3] were 32.8 nM and 18.9 nM, respectively. For the same compound, the figures for the selectivity ratio in [2] and in data set [4] were over 27 and over 46.8, respectively. In the data set on Vero [6], the Activity result is “Non-Toxic”. Besides, the “Ratio IC50” value in the data set with Plasmodium falciparum [9] is recorded as 22.

As for `Cc1cc(N(CCNc2ccnc3cc(Cl)ccc23)Cc2ccccn2)nc(N2CCCC2)n1`, the half-maximal inhibitory concentration (IC50) in the data set on Plasmodium falciparum [1] was 30 nM; in the data set with Plasmodium falciparum [3], 143 nM. Further, the selectivity ratio is over 331 in data set [2] and over 70 in [4]. For the same compound, in the data set on Vero [6], the Activity entry is “Non-Toxic”.

On to `Cc1cc(N(CCCNc2ccnc3cc(Cl)ccc23)Cc2cccs2)nc(N2CCN(C)CC2)n1`, for which the IC50 in the data set with Plasmodium falciparum [1] was determined as 37 nM; in the data set on Plasmodium falciparum [3], 38.7 nM. Further, the selectivity ratio is over 24.6 in data set [2] and over 23.5 in data set [4]. Further, in the data set with Vero [6], the Activity entry was “Non-Toxic”.

Consider `Cc1cc(N2CCN(C)CC2)nc(N(CCCNc2ccnc3cc(Cl)ccc23)Cc2ccccn2)n1`, for which the IC50 turned out to be 551 nM in the data set with Plasmodium falciparum [1] and 189 nM with Plasmodium falciparum [3]. Further, the selectivity ratio is over 16.7 in data set [2] and over 48.5 in data set [4]. The Activity entry in the data set with Vero [6] is “Non-Toxic”.

On to `Cc1cc(N2CCOCC2)nc(N(CCCNc2ccnc3cc(Cl)ccc23)Cc2ccccn2)n1`, for which the values for the IC50 in the data set with Plasmodium falciparum [1] and with Plasmodium falciparum [3] were 1140 nM and 334 nM, respectively. The figures for the selectivity ratio in data set [2] and in data set [4] were over 8.3 and over 28.3, respectively. In the data set with Vero [6], the Activity result is reported as “Non-Toxic”.

`Cc1cc(N(CCCNc2ccnc3cc(Cl)ccc23)Cc2ccccn2)nc(N2CCCCC2)n1`: the IC50 in the data set on Plasmodium falciparum [1] stood at 93 nM; in the data set with Plasmodium falciparum [3] it was 819 nM. Moreover, the selectivity ratio is over 102 in [2] and over 11.6 in [4]. Also, the Activity entry with Vero [6] was “Non-Toxic”.

As for `Cc1cc(N(CCCNc2ccnc3cc(Cl)ccc23)Cc2cccs2)nc(N2CCCCC2)n1`, the IC50 in the data set on Plasmodium falciparum [1] amounted to 83.7 nM; in the data set with Plasmodium falciparum [3], 235 nM; in the data set with Vero [5] it was 9150 nM. The figures for the selectivity ratio in data set [2] and in data set [4] were 109 and 38.9, respectively.

As to `Cc1cc(Cl)nc(N(CCCNc2ccnc3cc(Cl)ccc23)Cc2ccccn2)n1`, the IC50 with Plasmodium falciparum [1] was found to be 1660 nM; in the data set with Plasmodium falciparum [3], 804 nM. Besides, the selectivity ratio in data set [2] is over 6.3; in data set [4] it was over 13. The Activity entry in the data set with Vero [6] was “Non-Toxic”.
